Experimental data taken from patent US7053178B2, “Synthetic peptides and kits for diagnosis of anti-phospholipid syndrome” (Yeda Research Development Co., LTD, priority 1998, dated 2006).
Where no end group is shown, it is not given here.

How the values were obtained:
[1] = test system: anti-β2GPI G-3 mAb; assay: Cyto-ELISA: inhibition of G-3 mAb binding to HUVEC; parameters: species or system human; settings: peptide concentration of 10 μM
Description: (§1) FIGS. 2A–2C are graphs showing inhibition of the anti-β2GPI ILA-1, ILA-3 and G-3 mAbs binding to human umbilical vein endothelial cells (HUVEC) by competition assays using increasing concentrations of the inhibitory monomer peptides A, B and C, respectively, and of unrelated peptide D as control. The percent of inhibition was calculated as in FIG. 1 above. Each point represents mean±SD of three different experiments.
(§2) (f) Anti-β2GPI mAb binding to endothelial cells in the presence of the inhibitory peptides. Human umbilical vein endothelial cells (HUVEC) were isolated as previously described and cultured under standard conditions (Jaffe et al., 1973). Briefly, umbilical cords were treated with collagenase (0.2% from Clostridium histolyticum, Boehringer) for 20 min at 37° C., cells were cultured in medium 199 with 20% FCS, 10 μg/ml growth supplement, 100 μg/ml heparin and antibiotics (streptomycin, penicillin), and used at passages 1–2 for plating onto gelatin-coated 96-well plates. Cyto-ELISA was performed as detailed before (Jaffe et al., 1973). Briefly, mAbs at different concentrations were added to HUVEC confluent wells, previously coated with 10 μg/ml β2GPI for 2 hours and fixed with 0.1% glutaraldehyde. The bound mAb was detected by further 1-hour incubation with alkaline phosphatase-conjugated goat anti-human IgM. […]

[2] = test system: anti-β2GPI G-3 mAb; assay: Competition ELISA: inhibition of G-3 mAb binding to β2GPI; parameters: species or system human; settings: 10 μM peptide concentration
Description: (§3) FIGS. 1A–1C are graphs showing inhibition of the anti-β2GPI ILA-1, ILA-3 and G-3 mAbs binding to β2GPI by competition assays using increasing concentrations of the inhibitory monomer peptides A, B and C, respectively, and of unrelated peptide D as control. The percent of inhibition was calculated as follows: % inhibition=O.D control−O.D with inhibitor/O.D control×100. Each point represents mean±SD of three different experiments.
(§4) (e) Inhibition of anti-β2GPI mAb binding to β2GPI by the inhibitory peptides. For competition ELISA tests, the anti-β2GPI mAbs (10 μg/ml) were preincubated (overnight at 4° C.) with varying concentrations of the peptides. The competition reaction was then transferred to β2GPI-coated γ-irradiated ELISA plates (Nunc), and the assay continued as described above. The percentage of inhibition was calculated as follows: % inhibition=O.D control −O.D with inhibitor/O.D control×100.
(§5) (2a) The specificity of interaction of the mAbs with the corresponding synthetic peptides A, B, C and control peptide D as monomers, was assessed by inhibition experiments as described in Materials and Methods, sections (e) and (f).

[3] = test system: anti-β2GPI ILA-3 mAb; assay: Competition ELISA: inhibition of ILA-3 mAb binding to β2GPI; parameters: species or system human; settings: 10 μM peptide concentration
Description: as §3, §4, §5

[4] = test system: anti-β2GPI ILA-3 mAb; assay: U937 monocyte adhesion to HUVEC exposed to ILA-3 mAb; format: cell-based, human; settings: ILA-3 mAb preincubated with peptide, 15 μM peptide
Description: FIGS. 3A–3C are graphs showing inhibition of U937 monocyte cell adhesion to HUVEC upon exposure to anti-β2GPI ILA-1, ILA-3 and G-3 mAbs and increasing concentrations of the inhibitory monomer peptides A, B and C, respectively, and of unrelated peptide D as control. The percentage of inhibition of adhesion was calculated as follows: % inhibition of adhesion=CPM in the presence of anti-β2GPI mAb−CPM in the presence of anti-β2GPI mAb and the tested peptide/CPM in the presence of anti-β2GPI mAb×100 (CPM=counts/min). Each point represents mean±SD of three different experiments.
(g) Adherence of U937 monocyte cells to endothelial cells in the presence of anti-β2GPI mAbs and the inhibitory peptides. This assay was performed as previously described (Carvalho et al., 1996). Briefly, U937 cells (a monocyte/macrophage-like cell line) were pretreated with heat-aggregated gamma-globulin for 30 min at 37° C. […] Radioactivity associated with adherence was quantified by beta-scintillation spectroscopy. The results were expressed as percent of added U937 cells that adhered and are presented as the mean±SD from 3–5 replicate wells.
The adhesion of monocytes to endothelial cells (EC) is considered a marker of EC activation. The percentage of adhesion is expressed as the portion of added U937 monocyte cells adhering to the HUVEC (thus reflecting the percentage of HUVEC coverage by the monocytes). […]

[5] = test system: anti-β2GPI ILA-3 mAb; assay: Cyto-ELISA: inhibition of ILA-3 mAb binding to HUVEC; parameters: species or system human; settings: peptide concentration of 10 μM
Description: as §1, §2

[6] = test system: anti-β2GPI ILA-1 mAb; assay: Cyto-ELISA: inhibition of ILA-1 mAb binding to HUVEC; parameters: species or system human; settings: peptide concentration of 10 μM
Description: as §1, §2

Sequence: CATLRVYKGG [Peptide C]
- inhibition of G-3 mAb binding to HUVEC [1]: 92%
- inhibition of G-3 mAb binding to β2GPI [2]: 98%

Sequence: KDKATFGTHDG [Peptide B]
- inhibition of ILA-3 mAb binding to β2GPI [3]: 77%
- inhibition of adhesion of U937 to HUVEC [4]: 95%
- inhibition of ILA-3 mAb binding to HUVEC [5]: 72%

Sequence: NTLKTPRVGG [Peptide A]
- inhibition of ILA-1 mAb binding to HUVEC [6]: 95%
